Assay results as given in US20070128217A1 (priority 2003, published 2007).

What was measured:
[1] = test system: antibodies in sera from SARS patients (sera 1a, 1b, 2, 6, 37, 62, London, SARS-yellow, SARS-green); format: binding, human; parameters: Binding of serum 6 to linear peptides of protein X1 of SARS-CoV Urbani / Binding of serum 37 to linear peptides of protein X1 of SARS-CoV Urbani / Binding of serum 6 to looped/cyclic peptide (PEPSCAN-ELISA) / Binding of serum 37 to looped/cyclic peptide (PEPSCAN-ELISA) / Binding of serum 37 to looped/cyclic peptides of protein X1 of SARS-CoV Urbani / Binding of serum 6 to linear peptides of protein X2 / Binding of serum 37 to linear peptides of protein X2 / Binding of serum 37 to looped/cyclic peptides of protein X2 of SARS-CoV Urbani / Binding of serum 6 to linear peptides of protein M of SARS-CoV Urbani / Binding of serum 37 to linear peptides of protein M of SARS-CoV Urbani / Binding of serum 6 to looped/cyclic peptides of protein M of SARS-CoV Urbani / Binding of serum 37 to looped/cyclic peptides of protein M of SARS-CoV Urbani / Binding of serum 6 to linear peptides of protein X3 of SARS-CoV Urbani / Binding of serum 37 to linear peptides of protein X3 of SARS-CoV Urbani / Binding of serum 37 to looped/cyclic peptides of protein X3 of SARS-CoV Urbani / Binding of serum 6 to linear peptides of protein X4 of SARS-CoV Urbani / Binding of serum 37 to linear peptides of protein X4 of SARS-CoV Urbani / Binding of serum 37 to looped/cyclic peptides of protein X4 of SARS-CoV Urbani / Binding of serum 6 to linear peptides of protein X5 of SARS-CoV Urbani / Binding of serum 37 to linear peptides of protein X5 of SARS-CoV Urbani / Binding of serum 37 to looped/cyclic peptides of protein X5 of SARS-CoV Urbani / Binding of serum 6 to linear peptides of protein N of SARS-CoV Urbani / Binding of serum 37 to linear peptides of protein N of SARS-CoV Urbani / Binding of serum 6 to linear peptide (PEPSCAN-ELISA) / Binding of serum 1a to looped/cyclic peptides of protein N of SARS-CoV Urbani / Binding of serum 1b to looped/cyclic peptides of protein N of SARS-CoV Urbani / Binding of serum 2 to looped/cyclic peptides of protein N of SARS-CoV Urbani / Binding of serum 6 to looped/cyclic peptides of protein N of SARS-CoV Urbani / Binding of serum 37 to looped/cyclic peptides of protein N of SARS-CoV Urbani / Binding of serum 62 to looped/cyclic peptides of protein N of SARS-CoV Urbani / Binding of serum London to looped/cyclic peptides of protein N of SARS-CoV Urbani / Binding of serum SARS-green to looped/cyclic peptides of protein N of SARS-CoV Urbani: unit not given here
[2] = test system: control sera (pooled serum of ten healthy LUMC hospital workers; commercial negative donor pooled serum from the Dutch bloodbank); format: binding, human; parameters: Binding of Control serum LUMC to linear peptides / Binding of Control serum Blood-bank to linear peptides / Binding of Control serum LUMC to looped peptides / Binding of Control Serum Blood-Bank to Looped peptides / Binding of Control serum LUMC to linear peptides of the protein M of SARS-CoV Urbani / Binding of Control serum Blood-bank to linear peptides of the protein M of SARS-CoV Urbani / Binding of Control serum LUMC to looped peptides of the protein M of SARS-CoV Urbani / Binding of Control Serum Blood-Bank to Looped peptides of the protein M of SARS-CoV Urbani: unit not given here
[3] = test system: rabbit serum obtained by immunizing a rabbit with the SARS-CoV strain Frankfurt 1; format: binding; parameters: Binding of a rabbit serum to linear peptides / Binding of a rabbit serum to looped peptides / Rabbit serum linear peptides / Rabbit serum looped peptides / Binding of a rabbit serum to linear peptides of protein N of SARS-CoV Urbani (Rabbit serum linear peptides) / Binding of a rabbit serum to looped/cyclic peptides of protein N of SARS-CoV Urbani (Rabbit serum looped peptides): unit not given here

FVLAAVYRINWVTGG
0.6: Binding of serum 1b to looped/cyclic peptides of protein M of SARS-CoV Urbani [1] | Binding of serum 2 to linear peptides of protein M of SARS-CoV Urbani [1] | Binding of serum 62 to looped/cyclic peptides of protein M of SARS-CoV Urbani [1] | Binding of Control Serum Blood-Bank to Looped peptides of the protein M of SARS-CoV Urbani [2]
0.1: Binding of serum SARS-yellow to linear peptides of protein M of SARS-CoV Urbani [1]
0.0: Rabbit serum looped peptides [3]
0.5: Binding of serum 2 to looped/cyclic peptides of protein M of SARS-CoV Urbani [1] | Binding of serum 37 to looped/cyclic peptides of protein M of SARS-CoV Urbani [1] | Binding of Control serum LUMC to linear peptides of the protein M of SARS-CoV Urbani [2] | Rabbit serum linear peptides [3]
0.4: Binding of serum SARS-yellow to looped/cyclic peptides of protein M of SARS-CoV Urbani [1]
0.7: Binding of serum 1a to looped/cyclic peptides of protein M of SARS-CoV Urbani [1] | Binding of serum 1b to linear peptides of protein M of SARS-CoV Urbani [1]
0.3: Binding of serum 6 to linear peptides of protein M of SARS-CoV Urbani [1] | Binding of serum London to linear peptides of protein M of SARS-CoV Urbani [1] | Binding of serum London to looped/cyclic peptides of protein M of SARS-CoV Urbani [1] | Binding of serum SARS-green to linear peptides of protein M of SARS-CoV Urbani [1] | Binding of serum SARS-green to looped/cyclic peptides of protein M of SARS-CoV Urbani [1]
0.8: Binding of serum 6 to looped/cyclic peptides of protein M of SARS-CoV Urbani [1] | Binding of serum 37 to linear peptides of protein M of SARS-CoV Urbani [1] | Binding of serum 62 to linear peptides of protein M of SARS-CoV Urbani [1] | Binding of Control serum Blood-bank to linear peptides of the protein M of SARS-CoV Urbani [2] | Binding of Control serum LUMC to looped peptides of the protein M of SARS-CoV Urbani [2]
0.9: Binding of serum 1a to linear peptides of protein M of SARS-CoV Urbani [1]

MSLYMAISPKFTTSL
0.5: Binding of serum 6 to looped/cyclic peptides of protein X2 of SARS-CoV Urbani [1] | Binding of serum 37 to looped/cyclic peptides of protein X2 of SARS-CoV Urbani [1] | Binding of serum SARS-green to linear peptides of protein X2 [1] | Binding of serum SARS-yellow to looped/cyclic peptides of protein X2 of SARS-CoV Urbani [1] | Binding of a rabbit serum to looped peptides [3]
0.6: Binding of serum 1b to looped/cyclic peptides of protein X2 of SARS-CoV Urbani [1] | Binding of serum 37 to linear peptides of protein X2 [1] | Binding of serum 62 to linear peptides of protein X2 [1] | Binding of Control serum LUMC to linear peptides [2]
0.3: Binding of serum 6 to linear peptides of protein X2 [1] | Binding of serum SARS-green to looped/cyclic peptides of protein X2 of SARS-CoV Urbani [1] | Binding of serum SARS-yellow to linear peptides of protein X2 [1] | Binding of a rabbit serum to linear peptides [3]
0.9: Binding of Control serum LUMC to looped peptides [2]
0.7: Binding of serum 1a to looped/cyclic peptides of protein X2 of SARS-CoV Urbani [1] | Binding of serum 1b to linear peptides of protein X2 [1] | Binding of Control serum Blood-bank to linear peptides [2]
0.4: Binding of serum 2 to linear peptides of protein X2 [1] | Binding of serum 2 to looped/cyclic peptides of protein X2 of SARS-CoV Urbani [1] | Binding of serum London to linear peptides of protein X2 [1] | Binding of serum London to looped/cyclic peptides of protein X2 of SARS-CoV Urbani [1]
0.8: Binding of serum 1a to linear peptides of protein X2 [1] | Binding of serum 62 to looped/cyclic peptides of protein X2 of SARS-CoV Urbani [1] | Binding of Control Serum Blood-Bank to Looped peptides [2]

QTLVLKMLHSSSLTS
0.9: Binding of serum London to looped/cyclic peptides of protein X2 of SARS-CoV Urbani [1]
0.4: Binding of serum 1b to looped/cyclic peptides of protein X2 of SARS-CoV Urbani [1] | Binding of serum 37 to looped/cyclic peptides of protein X2 of SARS-CoV Urbani [1] | Binding of serum London to linear peptides of protein X2 [1] | Binding of serum SARS-yellow to looped/cyclic peptides of protein X2 of SARS-CoV Urbani [1] | Binding of Control serum LUMC to linear peptides [2] | Binding of a rabbit serum to looped peptides [3]
0.6: Binding of serum 1a to looped/cyclic peptides of protein X2 of SARS-CoV Urbani [1] | Binding of serum 62 to linear peptides of protein X2 [1] | Binding of serum 62 to looped/cyclic peptides of protein X2 of SARS-CoV Urbani [1] | Binding of Control serum LUMC to looped peptides [2]
0.7: Binding of serum 1a to linear peptides of protein X2 [1] | Binding of serum SARS-yellow to linear peptides of protein X2 [1] | Binding of Control serum Blood-bank to linear peptides [2]
0.3: Binding of serum 2 to looped/cyclic peptides of protein X2 of SARS-CoV Urbani [1] | Binding of serum SARS-green to looped/cyclic peptides of protein X2 of SARS-CoV Urbani [1] | Binding of a rabbit serum to linear peptides [3]
0.5: Binding of serum 1b to linear peptides of protein X2 [1] | Binding of serum 2 to linear peptides of protein X2 [1] | Binding of serum 6 to linear peptides of protein X2 [1] | Binding of serum 6 to looped/cyclic peptides of protein X2 of SARS-CoV Urbani [1] | Binding of serum 37 to linear peptides of protein X2 [1] | Binding of serum SARS-green to linear peptides of protein X2 [1] | Binding of Control Serum Blood-Bank to Looped peptides [2]
